According to patent US7709653B2, “Asymmetric cyanine compounds, their preparation methods and their uses” (Shenzhen Mindray Bio-Medical Electronics Co. Ltd., priority 2008, dated 2010):

Columns and labels:
[1] = Detection of the absorption peak of the fluorescent dyes (UV-visible spectrophotometer, after standing at different temperatures); assay type: physicochemical; conditions: for Maximum absorption peak of the compounds disclosed: methanol/ethylene glycol (50:50 vol/vol), light-proof; for Maximum absorption peak: methanol/ethylene glycol, given with the synthesis example
Procedure: A certain amount of an asymmetric cyanine compound was accurately weighed and sufficiently dissolved in 2.5 mL of methanol/ethylene glycol solution (50:50 vol/vol) to prepare a fluorescent dye solution at a concentration of 5 mM. Four parts of 5 μL aliquots of the fluorescent dye solution were each diluted in 2 mL of methanol/ethylene glycol solution (50:50 vol/vol) and were let stand under a hermetic and light-proof condition at 0° C., 20° C., 40° C. and 60° C. respectively for 48 hours. The maximum absorption peak was detected using a ultraviolet-visible spectrophotometer.

[2] = system: soft-shelled turtle (Trionyx sinensis) liver RNA; experiment: Fluorescence intensity of dye in PBS containing soft-shelled turtle liver RNA; assay type: binding; conditions: for Relative fluorescence intensity, after binding RNA / Maximum excitation peak of the dye/RNA complexes / Relative fluorescence intensity, before binding RNA: in PBS; for Relative fluorescence intensity, after binding RNA: bound with soft-shelled turtle liver RNA; for Maximum excitation peak of the dye/RNA complexes: room temperature; for Relative fluorescence intensity, before binding RNA: without RNA; for Ratio of increase in fluorescence (after vs before binding): soft-shelled turtle liver RNA in PBS; for Fluorescence emission strength of the dye/RNA complexes: with increase in RNA concentration / on complex formation, PBS
Procedure: A certain amount of Dye-1 was accurately weighed and sufficiently dissolved in 2.5 mL of methanol/ethylene glycol (50:50 vol/vol) to prepare a dye solution at a concentration of 5 mM. This solution was filtered before use. Separate amounts of freshly prepared soft-shelled turtle (Trionyx sinensis) liver RNA were weighed and dissolved in PBS to obtain PBS buffers containing 100 μg/mL, 30 μg/mL, 10 μg/mL, 3 μg/mL of RNA. 2 μL aliquots of the prepared 5 mM dye solution were accurately measured and respectively combined in 1 mL of PBS with 1 μL of the PBS buffers containing different concentrations of RNA. After reacting for a period of time, the complexes were detected for their emission spectra at the selected excitation wavelength (which the skilled artisan would understand is the maximum absorption wavelength of the dye. See, e.g., Table 1). The detection temperature was at room temperature. The instrument used was fluorescence spectrophotometer Model FL-4500. […] The detection procedures followed were those described in Example 10 and Example 11. The fluorescence spectra for the complexes of Dye-3 and different concentrations of DNA or RNA are shown in FIG. 6 and FIG. 7, respectively. The comparisons of fluorescence intensity for Dye-3 before and after it is bound with DNA or with RNA in PBS are shown in FIG. 8 and FIG. 9, respectively.

salmon sperm DNA = experiment: Fluorescence intensity of dye in PBS containing salmon sperm DNA; assay type: binding; conditions: for Relative fluorescence intensity, after binding DNA: bound with salmon sperm DNA; for Maximum excitation peak of the dye/DNA complexes: room temperature; for Ratio of increase in fluorescence (after vs before binding): salmon sperm DNA in PBS; for Fluorescence emission strength of the dye/DNA complexes: with increase in DNA concentration / on complex formation, PBS
Procedure: A certain amount of Dye-1 was accurately weighed and sufficiently dissolved in 2.5 mL of methanol/ethylene glycol (50:50 vol/vol) to prepare a dye solution at a concentration of 5 mM. This solution was filtered before use. Separate amounts of salmon sperm DNA were weighed and dissolved in PBS to obtain PBS buffers containing 3 mg/mL, 1 mg/mL, 0.3 mg/mL, 0.1 mg/mL of DNA. 2 μL aliquots of the prepared 5 mM dye solution were accurately measured and respectively combined in 1 mL of PBS with 1 μL of the PBS buffers containing different concentrations of DNA. After reacting for a period of time, the complexes were detected for their emission spectra at the selected excitation wavelength (which the skilled artisan would understand is the maximum absorption wavelength of the dye. See, e.g., Table 1). The detection was performed at room temperature. The instrument used was fluorescence spectrophotometer Model FL-4500. […] The detection procedures followed were those described in Example 10 and Example 11. The fluorescence spectra for the complexes of Dye-3 and different concentrations of DNA or RNA are shown in FIG. 6 and FIG. 7, respectively. The comparisons of fluorescence intensity for Dye-3 before and after it is bound with DNA or with RNA in PBS are shown in FIG. 8 and FIG. 9, respectively.

[3] = after standing at 0° C. for 48 hours
[4] = after standing at 20° C. for 48 hours
[5] = after standing at 40° C. for 48 hours
[6] = after standing at 60° C. for 48 hours

SMILES	Maximum absorption peak of the compounds disclosed [1, 3]	Maximum absorption peak of the compounds disclosed [1, 4]	Maximum absorption peak of the compounds disclosed [1, 5]	Maximum absorption peak of the compounds disclosed [1, 6]	Maximum absorption peak [1]	Relative fluorescence intensity, after binding RNA [2]	Relative fluorescence intensity, before binding RNA [2]	Ratio of increase in fluorescence (after vs before binding) [2]	Relative fluorescence intensity, after binding DNA (salmon sperm DNA; in PBS)	Relative fluorescence intensity, before binding DNA (salmon sperm DNA; in PBS, without salmon sperm DNA)	Ratio of increase in fluorescence (after vs before binding) (salmon sperm DNA)	Shift of the position of the maximum absorption peak as a function of temperature ([1]; 0° C., 20° C., 40° C. and 60° C. for 48 hours)	Maximum excitation peak of the dye/RNA complexes [2]	Fluorescence emission strength of the dye/RNA complexes [2]	Maximum excitation peak of the dye/DNA complexes (salmon sperm DNA; in PBS)	Fluorescence emission strength of the dye/DNA complexes (salmon sperm DNA)
CC[n+]1c(/C=C/C=C2\C=CN(CCO)c3ccccc32)sc2ccc(Cl)cc21 [Dye-3]	–	–	–	–	640 nm	23.94	0.67	35.7	97.56	0.67	146	did not shift	> 655 nm	increased rapidly	> 655 nm	increased rapidly
OCCN1C=C/C(=C\C=C\c2sc3ccc(Cl)cc3[n+]2CCO)c2ccccc21 [Dye-1]	638 nm	638 nm	638 nm	638 nm	638 nm	16.79	0.75	22.4	63.29	–	84	–	about 660 nm	increased rapidly	about 660 nm	increased rapidly
CC[n+]1c(/C=C/C=C2\C=CN(CCO)c3ccccc32)sc2ccc(Br)cc21 [Dye-5]	640 nm	640 nm	640 nm	640 nm	640 nm	–	–	–	–	–	–	–	–	–	–	–

Further lines, with some results ahead:

Maximum absorption peak of the compounds disclosed [1, 3]	Maximum absorption peak of the compounds disclosed [1, 4]	Maximum absorption peak of the compounds disclosed [1, 5]	Maximum absorption peak of the compounds disclosed [1, 6]	Maximum absorption peak [1]	Relative fluorescence intensity, after binding RNA [2]	Relative fluorescence intensity, before binding RNA [2]	Ratio of increase in fluorescence (after vs before binding) [2]	Relative fluorescence intensity, after binding DNA (salmon sperm DNA; in PBS)	Relative fluorescence intensity, before binding DNA (salmon sperm DNA; in PBS, without salmon sperm DNA)	Ratio of increase in fluorescence (after vs before binding) (salmon sperm DNA)	Shift of the position of the maximum absorption peak as a function of temperature ([1]; 0° C., 20° C., 40° C. and 60° C. for 48 hours)	SMILES	Maximum excitation peak of the dye/RNA complexes [2]	Fluorescence emission strength of the dye/RNA complexes [2]	Maximum excitation peak of the dye/DNA complexes (salmon sperm DNA; in PBS)	Fluorescence emission strength of the dye/DNA complexes (salmon sperm DNA)
639 nm	639 nm	639 nm	639 nm	639 nm	–	–	–	–	–	–	–	CCN1C=C/C(=C\C=C\c2sc3ccccc3[n+]2CCO)c2ccc(Cl)cc21 [Dye-4]	–	–	–	–
638 nm	638 nm	638 nm	638 nm	638 nm	–	–	–	–	–	–	–	OCCN1C=C/C(=C\C=C\c2sc3ccccc3[n+]2CCO)c2ccc(Br)cc21 [Dye-6]	–	–	–	–
639 nm	639 nm	639 nm	639 nm	639 nm	–	–	–	–	–	–	–	CCN1C=C/C(=C\C=C\c2sc3ccccc3[n+]2CCOC(C)=O)c2ccc(Cl)cc21 [Dye-2]	–	–	–	–
